Data set [1] has as its system ERK1/2 nuclear translocation. The data set is described as follows: Determination of ERK1/2 localization by fluorescence microscopy after TPA stimulation. Type of data set: cell-based. To be noted: for inhibition of stimulated ERK1/2 nuclear translocation: 1 μM, 2 h. The protocol:
Determination of Protein Localization by Fluorescence Microscopy:
Indicated cells were seeded on coverslips (coated with 0.001% w/v poly-L-lysine or not, depending on the cell line) at 50% confluency. After the indicated treatment, cells were fixed in 4% paraformaldehyde/PBS for 20 minutes on an ice surface, permeabilized with 0.1% Triton X-100/PBS for 5 minutes at 23° C., then blocked in 2% BSA/PBS for 30 minutes at 23° C. The fixed cells were sequentially incubated with appropriate antibodies (in 2% BSA/PBS, 1.5 hour), washed 3 times with PBS^−/−, and followed by incubation with either Cy-2-conjugated or rhodamine-conjugated secondary antibodies (1:200) and with DAPI ([…]; 1:100) in 2% BSA/PBS for 45 minutes. Slides were analyzed and photographed by a fluorescence microscope (Olympus BX51, ×40). Background correction, and contrast adjustment of raw data images were performed using Photoshop (Adobe, CA, USA).
The effect of Z56 was compared with that of the inhibitory effect of EPE peptide on nuclear translocation of ERK1/2.
The effects of the compounds on ERK1/2 nuclear translocation were evaluated in three cell lines (HeLa cells and two melanoma cell lines, A2185 and A2352), by treating the cells with each compound for two hours, and determining nuclear translocation using fluorescent anti-ERK antibodies, according to procedures described hereinabove.

Another data set deals with LOX-IMVI melanoma cells. The experiment in a line: Dose-response analysis (IC50), LOX-IMVI cells. Type of data set: cell-based. To be noted: Homo sapiens. The protocol: (§1) FIG. 15A presents dose response curves of compounds C17, D3, D11 and D14 on 8 cancer cells. Five melanoma cell lines (A2185, A2352, A2024, A2058 and LOX-IMVI), HeLa, HCT-116 and PC3 cells were grown in 1% FCS media containing either DMSO (0.1%), EPE peptide (10 μM), or Compounds C17, D3, D11, D14 at the indicated concentrations, for 72 hours. Viable cells were quantified by staining with methylene blue. Data presented as percentage of DMSO control ±SE of triplicates. […] IC50 values were calculated by interpolation in the curves in FIG. 15A. […] Bar graphs represent average viability respect to DMSO control ±SE of triplicates.
(§2) Cell Viability (IC50) Assay:
(§3) Cells were seeded at a density of 4000 cells per well into 96-well plates in complete medium. After 24 hours, medium was replaced by 1% FCS (fetal calf serum) containing appropriate treatments. Fresh medium containing the same agents was replaced every day. After 96 hours, cell viability was assessed using the CellTiter-Glo reagent (Promega; Madison, WI). IC50 values were determined using GraphPad Prism.

In the next data set the test system is A2185 and A2352 cells. The experiment in a line: Viability assay (methylene blue), two BRAF melanoma cells. Type of data set: cell-based. Conditions: for cytotoxicity at 1 µM: both melanoma cell lines, read-out: reduction of viability. The protocol: FIGS. 10A, 10B and 10C present data from screening the 20 analogs of Compound Z2 (“C-compounds”) showing three particularly active anti-proliferative compounds. […] A2185 and A2352 cells were grown in 1% FCS containing DMSO (0.1%), EPE peptide, Compound Z56, Compound Z2 or C-compounds (10 μM), for 72 hours. Compounds were categorized according to activity: (1) active, below 40%; (2) moderate activity, below 80%; (3) not active, above 80%. […] A2185 and A2352 cells were grown in 1% FCS containing DMSO (0.1%), EPE peptide (10 μM), compounds Z56, Z2 or selected C-compounds (3 μM), for 72 hours. Empty squares/circles represent individual data points of proliferation. Full squares/circles indicate average proliferation of 2 independent experiments in triplicate±SE. Bold horizontal line defines arbitrary activity threshold of activity below 40%. FIG. 10C presents dose response curves of active C-compounds compounds. A2185 and A2352 were grown in 1% FCS media containing DMSO (0.1%), EPE peptide, Z56, Z2 (10 μM) or compounds C17, C22 and C23 (0.1-10 μM), for 72 hours. […] Cell viability was measured by staining with methylene blue. Data presented as percentage of DMSO control. Bar graphs represent average of 2 independent experiments done in triplicates ±SE.
FIG. 13 presents a graph showing the effect of analogs of Compound C17 (“D-compounds”) on cell viability at a concentration of 10 μM. A2185 and A2352 cells were grown in 1% FCS media containing DMSO (0.1%) EPE peptide (10 μM), Compounds Z56, Z2, C17 (10 μM) as controls, and D-Compounds (10 μM), for 72 hours. Viable cells were measured by staining with methylene blue. Bar graphs represent average of 2 independent experiments done in triplicates. Data presented as percentage of DMSO proliferation ±standard error.
FIG. 14 presents a graph showing the effect of analogs of Compound C17 (“D-compounds”) on cell viability at a concentration of 1 μM. A2185 and A2352 cells were grown in 1% FCS media containing DMSO (0.1%), EPE peptide (10 μM), Compounds Z56, Z2 and C17 (1 and 10 μM) as controls, and D-compounds (1 μM), for 72 hours. Viable cells were measured by staining with methylene blue. Bar graphs represent average of 2 independent experiments done in triplicates. Data presented as percentage of DMSO proliferation ±standard error.
Cells were seeded at low confluence into 24, 48 or 96-well plates in complete medium. After 24 hours, medium was replaced by 1% FCS (fetal calf serum) containing appropriate treatments. Fresh medium containing the same agents was replaced every day. After 72 or 96 hours of treatment, cells were fixed with 4% formaldehyde overnight at 23° C., washed once with 0.1 M borate buffer (pH 8.5) for 10 minutes, and stained with of 1% methylene blue in 0.1 M borate buffer (pH 8.5) for 30 minutes. Excess stain was washed out with distilled water. Color was extracted by adding 0.1 M HCl (3 hours, 23° C.), and absorbance measured at 595 nm in an ELISA reader. For time course experiments, attached cells were fixed and measured at 0, 24, 48, 72 and 96 hours. For dose-response experiments, cells were treated with indicated concentrations of reagent, fixed and stained after 72 hours as above.
The ability of the selected compounds to reduce cell viability of two BRAF melanoma cells (A2185 and A2352) was evaluated. Initially, all compounds were assayed at a relatively high concentration of 10 μM.

The next data set has as its system mammalian cells. To be noted: Ananthan et al., Tuberculosis (Edinb) 2009; cited from earlier work.
In the next data set the test system is PC3 cells. The experiment in a line: Dose-response analysis, PC3 cells. Type of data set: cell-based. To be noted: dose response, 72 hours. The protocol:
as §1, §2, §3

Data set [2] relates to anti-tubercular activity (unknown mechanism). To be noted: Ananthan et al., Tuberculosis (Edinb) 2009; cited from earlier work.
Data set [3] concerns melanoma cells (A2185, A2352, A2024, A2058 and LOX-IMVI). The experiment in a line: Dose-response analysis (IC50 assay), melanoma cells. Conditions: calculated by interpolation in the dose response curves. Type of data set: cell-based. The protocol:
as §1, §2, §3

The subject of data set [4] is A2185, A2352, A2024, A2058, LOX-IMVI, HeLa, HCT-116 and PC3 cells. The data set is described as follows: Dose-response analysis (IC50 assay) in eight cancer cell lines. Type of data set: cell-based. Conditions: for potency in reducing cell viability relative to Compound D14 / potency in reducing cell viability relative to Compound C17: 72 hours; for potency in reducing cell viability relative to Compound D14: in seven of the eight cell lines; for potency in reducing cell viability relative to Compound C17: in six of the eight tested cell lines. The protocol: as §1
Cell Viability (IC50) Assay: […]

Another data set concerns A2058 cells. The data set is described as follows: Dose-response analysis, A2058 cells. Type of data set: cell-based. Conditions: dose response, 72 hours. The protocol:
as §1, §2, §3

The mark [5] stands for this setting: TPA 100 nM, 15 minutes, A2185 cells.

Structures are written as SMILES. “Also recorded” adds a separate entry of the source.

By IC50 is commonly meant the concentration that inhibits the measured activity by half. The viability is a per cent measure of how many cells are alive, often set against a control. With `O=S1(=O)C=CC2ON=C(c3ccc(C(F)(F)F)cc3)C21` (centres unmarked) [Compound C17], in [1] (10 μM, 2 hours, A2185 cells), the “relative potency in blocking nuclear accumulation of ERK1/2” value is “more potent than Compounds C22 and C23”. In addition, the “nuclear accumulation of ERK1/2 upon TPA stimulation” value in data set [1] (10 μM, 2 hours, TPA 100 nM, 15 minutes, A2185 and A2352 cells) is given as “inhibited”. Also, the IC50 is roughly 20 nM with LOX-IMVI melanoma cells; roughly 1000 nM in the data set with A2185 and A2352 cells (potency summarised from viability results of Example 6); 400 to 1300 nM in data set [3]. In addition, the “cell viability at lower concentration” value in the data set on A2185 and A2352 cells (3 μM, 72 hours, 1% FCS) is “consistently strong anti-viability effect”. Further, the viability at 10 µM in the data set on A2185 and A2352 cells (10 μM, 72 hours, 1% FCS, active below 40%, moderate below 80%, not active above 80%, read-out: cell viability (percentage of DMSO control)) was less than 40%. For the same molecule, the “cell viability, dose response” value in the data set on A2185 and A2352 cells (0.1-10 μM, 72 hours, 1% FCS) is listed as “dose dependent manner; also recorded: as potent in reducing the viability of A2352 cells”. In addition, the “activity in SAR summary of FIGS. 10A-10C (cell viability)” value in the data set with A2185 and A2352 cells (comparison with Compound Z2 or named analog) was “surprisingly superior to the ester group of Compound Z2”. For the same molecule, the “concentration at which activity is already exhibited” value in the data set with A2185 and A2352 cells (dose response 0.1-10 μM, 72 hours) was 0.3 µM. Moreover, the “cytotoxic activity in mammalian cells” value in the data set with mammalian cells is “without presenting cytotoxic activity”. Moreover, the “viability of PC3 cells” value with PC3 cells was “significantly decreased”. Also, the “anti-tubercular activity in high-throughput screening” value in data set [2] is given as “hit”.

On to `O=S1(=O)C=CC2ON=C(c3cc(Cl)cc(Cl)c3)C21` (centres unmarked) [Compound D3], for which, in data set [1] (setting [5]), the “inhibition of stimulated ERK1/2 nuclear translocation” value (from here on “inhibition”) is reported as “convincing activity; also recorded: most potent of the three tested compounds”. Also, the cytotoxicity at 1 µM with A2185 and A2352 cells (72 hours, 1% FCS) is no more than 90%. In data set [4], the “potency in reducing cell viability relative to Compound D14” value is recorded as “slightly more potency than Compound D14” and the “potency in reducing cell viability relative to Compound C17” value is listed as “significantly more potency than Compound C17”. Also, the “selectivity (pattern of effect across cell types compared with EPE peptide)” value (“selectivity” for short) in data set [4] (eight cancer cell lines) was “more selective than Compounds C17 and D14”. The “viability of PC3 cells” value in the data set with PC3 cells is “did not”. Also, the “reducing the viability of A2058 cells” value with A2058 cells was “strong effect”. Further, the IC50 in [3] was 40 to 250 nM.

As to `O=S1(=O)C=CC2ON=C(c3ccc(Cl)c(Cl)c3)C21` (centres unmarked) [Compound D11], in [1] (setting [5]), the “inhibition” value is recorded as “convincing activity”. Also, in the data set with A2185 and A2352 cells (72 hours, 1% FCS), the cytotoxicity at 1 µM is no more than 90%. In data set [4], the “potency in reducing cell viability relative to Compound D14” value is given as “slightly more potency than Compound D14” and the “potency in reducing cell viability relative to Compound C17” value was “significantly more potency than Compound C17”. The “selectivity” value in data set [4] (eight cancer cell lines) is “more selective than Compounds C17 and D14”. The “viability of PC3 cells” value in the data set with PC3 cells is “did not”. Moreover, the “reducing the viability of A2058 cells” value with A2058 cells is “strong effect”. For the same molecule, the IC50 in data set [3] was 40 to 250 nM.

`O=S1(=O)C=CC2ON=C(c3c[nH]c4ccccc34)C21` (centres unmarked) [Compound D14]: the “inhibition” value in data set [1] (setting [5]) was “convincing activity”. Besides, in the data set on A2185 and A2352 cells (72 hours, 1% FCS), the cytotoxicity at 1 µM is no more than 90%. Also, the “potency in reducing cell viability relative to Compound C17” value in data set [4] is on record as “significantly more potency than Compound C17”. Besides, in data set [4] (eight cancer cell lines), the “IC50 values compared to Compound C17” value was “significantly lower IC50 values compared to Compound C17” and the “selectivity” value is reported as “less selective”. Also, in the data set on PC3 cells, the “viability of PC3 cells” value is “significantly decreased”.
